Laboratory results: ChEMBL document CHEMBL4706610, “Hydroxypyridinone-Based Iron Chelators with Broad-Ranging Biological Activities” (J Med Chem, 2020)
In brackets after ≈: the same amount, converted by molar mass. Values belong to the compound of their own block, whether it stands above or below them.

Legend:
[1] = Electrochemical behavior of the compound assessed as redox potential; assay type: physicochemical
Acetylcholinesterase [2] = target: T1, Acetylcholinesterase (Electrophorus electricus, UniProt O42275); experiment: Inhibition of electric eel AChE using acetylthiocholine iodide as substrate preincubated for 15 mins followed by substrate addition and measured for 5 mins by Ellman's method
T1 sequence (O42275 whole entry): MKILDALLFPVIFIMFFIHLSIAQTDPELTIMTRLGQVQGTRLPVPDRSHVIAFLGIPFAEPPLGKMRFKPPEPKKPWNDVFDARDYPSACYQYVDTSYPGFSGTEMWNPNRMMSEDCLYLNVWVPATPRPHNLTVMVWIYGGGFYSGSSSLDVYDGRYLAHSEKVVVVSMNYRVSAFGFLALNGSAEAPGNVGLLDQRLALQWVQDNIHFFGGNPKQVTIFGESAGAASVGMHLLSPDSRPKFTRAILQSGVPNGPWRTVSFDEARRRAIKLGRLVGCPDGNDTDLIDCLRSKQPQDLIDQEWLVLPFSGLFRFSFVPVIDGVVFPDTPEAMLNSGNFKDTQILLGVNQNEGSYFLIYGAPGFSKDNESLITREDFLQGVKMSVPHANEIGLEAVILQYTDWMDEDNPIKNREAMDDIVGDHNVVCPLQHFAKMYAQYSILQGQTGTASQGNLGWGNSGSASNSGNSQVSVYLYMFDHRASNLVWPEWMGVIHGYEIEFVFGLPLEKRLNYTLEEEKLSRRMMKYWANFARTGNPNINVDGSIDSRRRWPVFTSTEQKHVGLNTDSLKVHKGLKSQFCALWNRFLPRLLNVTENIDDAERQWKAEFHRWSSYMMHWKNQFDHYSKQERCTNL

Pseudomonas aeruginosa = experiment: Antibacterial activity against Pseudomonas aeruginosa incubated for 2 hrs followed by sterilized TSB addition and measured after 24 hrs by visual inspection; assay type: functional; conditions: time 26 hrs
[3] = Octanol/water partition coefficient, log P of the compound shaken for 45 mins and measured after 15 mins; assay type: physicochemical; conditions: time 60 min
[4] = Binding affinity to iron assessed as pFe3+ by spectrophotometric method
[5] = Binding affinity to iron assessed as pFe3+
Staphylococcus aureus [6] = experiment: Antibacterial activity against Staphylococcus aureus incubated for 2 hrs followed by sterilized water addition and measured after 24 hrs by visual inspection; assay type: functional; conditions: time 26 hrs
Providencia stuartii = experiment: Antibacterial activity against Providencia stuartii incubated for 24 hrs by visual inspection; assay type: functional
[7] = Binding affinity to Fe3+ assessed as pFe by UV-Vis spectrophotometric method
Rattus norvegicus = experiment: Iron scavenging activity in 59Fe-ferritin-loaded rat assessed as iron mobilization efficacy at 450 umol/kg, po dosed 1 hr after 59Fe-ferritin injection and measured 24 hrs after 59Fe-ferritin injection by gamma counting method relative to control; assay type: functional; conditions: dose 450 µmol/kg; time 23 hrs
[8] = Binding affinity to iron assessed as pFe3+ at pH 7.45
Acetylcholinesterase [9] = target: T1, Acetylcholinesterase; experiment: Inhibition of electric eel AChE using acetylthiocholine iodide as substrate preincubated for 15 mins followed by substrate addition and measured for 5 mins by Ellman's reagent based UV-Vis spectrophotometric method
[10] = target: Amyloid-beta precursor protein (Homo sapiens, UniProt P05067); experiment: Inhibition of self-induced amyloid beta (1 to 42) (unknown origin) aggregation measured after 24 hrs by ThT fluorescence assay relative to control; conditions: concentration not given here
Sequence of Amyloid-beta precursor protein (P05067 whole entry): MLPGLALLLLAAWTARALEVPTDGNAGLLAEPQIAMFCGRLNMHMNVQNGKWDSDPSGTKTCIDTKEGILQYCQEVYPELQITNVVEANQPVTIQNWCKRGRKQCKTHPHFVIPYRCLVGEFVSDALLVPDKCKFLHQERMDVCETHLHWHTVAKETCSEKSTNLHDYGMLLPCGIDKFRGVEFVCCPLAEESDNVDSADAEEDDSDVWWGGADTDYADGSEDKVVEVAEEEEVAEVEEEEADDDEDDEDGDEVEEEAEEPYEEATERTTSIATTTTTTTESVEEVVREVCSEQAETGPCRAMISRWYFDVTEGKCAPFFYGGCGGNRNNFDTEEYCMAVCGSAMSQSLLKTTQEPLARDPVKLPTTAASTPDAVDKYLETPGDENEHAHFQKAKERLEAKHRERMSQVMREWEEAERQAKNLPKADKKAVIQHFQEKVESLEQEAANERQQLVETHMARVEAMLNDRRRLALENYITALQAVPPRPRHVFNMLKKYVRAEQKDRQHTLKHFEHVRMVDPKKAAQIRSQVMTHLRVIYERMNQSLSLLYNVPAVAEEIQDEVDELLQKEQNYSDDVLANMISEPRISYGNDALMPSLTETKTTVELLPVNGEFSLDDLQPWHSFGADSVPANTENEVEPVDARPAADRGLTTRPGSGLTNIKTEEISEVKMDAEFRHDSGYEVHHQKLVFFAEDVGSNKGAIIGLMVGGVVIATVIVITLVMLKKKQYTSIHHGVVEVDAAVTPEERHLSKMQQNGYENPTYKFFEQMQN

[11] = Antioxidant activity assessed as DPPH radical scavenging activity incubated for 30 mins by absorbance method; assay type: functional
[12] = Binding affinity to iron assessed as pFe3+ at pH 7.4 by spectrophotometric method
Staphylococcus aureus [13] = experiment: Protection against Staphylococcus aureus Smith infected in sc dosed mouse administered 1 hr post infection and measured at 7 days post infection by Litchfield-Wilcoxon method; assay type: functional; conditions: 168 h, time 7 day
[14] = tested on: Staphylococcus epidermidis; experiment: Antibacterial activity against Staphylococcus epidermis ATCC 12228 measured after 18 to 24 hrs by CLSI-based microdilution technique; assay type: functional; conditions: time 18-24 hrs
[15] = Partition coefficient, log P of the compound; assay type: physicochemical; conditions: octanol/water
Plasmodium falciparum [16] = experiment: Antiplasmodial activity against chloroquine-sensitive Plasmodium falciparum D10 incubated for 48 hrs by parasite lactate dehydrogenase assay; assay type: functional, organism-based; conditions: D10, 48 h
Plasmodium falciparum [17] = experiment: Antiplasmodial activity against chloroquine-sensitive Plasmodium falciparum 3D7 incubated for 48 hrs by parasite lactate dehydrogenase assay; assay type: functional, organism-based; conditions: 3D7, 48 h
Plasmodium falciparum [18] = experiment: Antiplasmodial activity against chloroquine-resistant Plasmodium falciparum K1 incubated for 48 hrs by parasite lactate dehydrogenase assay; assay type: functional, organism-based; conditions: K1, 48 h
Plasmodium falciparum [19] = experiment: Antiplasmodial activity against chloroquine-resistant Plasmodium falciparum Dd2 incubated for 48 hrs by parasite lactate dehydrogenase assay; assay type: functional, organism-based; conditions: Dd2, 48 h
[20] = Binding affinity to Fe3+ assessed as binding constant

Compound: Oc1cccc2cccnc12 [OXYQUINOLINE]
Activity [1]: -150 mV

Compound: Cc1c(O)c(=O)ccn1CC(=O)NCC(O)CNc1c2c(nc3cc(Cl)ccc13)CCCC2 (stereo unspecified)
IC50 (Acetylcholinesterase [2]): 640 nM

Compound: Cc1c(O)c(=O)ccn1CC(=O)NCCCCNc1c2c(nc3cc(Cl)ccc13)CCCC2
IC50 (Acetylcholinesterase [2]): 640 nM

Compound: CCC(O)c1c(O)c(=O)cc(C)n1C (stereo unspecified)
Efficacy (Rattus norvegicus): 60.4% | Activity [8]: 21

Compound: Cc1c(O)c(=O)ccn1CCCC(=O)N1CCCC1c1nc2ccccc2s1 (stereo unspecified)
IC50 (Acetylcholinesterase [9]): 14700 nM | inhibition [10]: 59.3% | IC50 [11]: 148000 nM | Activity [12]: 19.2

Compound: CCn1ccc(=O)c(O)c1C(=O)NCCCC(CCCNC(=O)c1c(O)c(=O)ccn1CC)(CCCNC(=O)c1c(O)c(=O)ccn1CC)NC(=O)[C@@H](N)CC(C)C
MIC (Pseudomonas aeruginosa): 32 µg/mL (≈ 39.5 µM)

Compound: CN(C)C(=O)c1cccc(O)c1O
Activity [5]: 15

Compound: CO/N=C(\C(=O)N[C@@H]1C(=O)N2C(C(=O)[O-])=C(C[n+]3cccc4c3CCC4)CS[C@H]12)c1csc(N)n1 [CEFPIROME]
ED50 (Staphylococcus aureus [13]): 1.5 mg/kg

Compound: Cc1c(O)c(=O)ccn1CCN1CCCCC1
logP [15]: 0.96

Compound: Cc1c(O)c(=O)ccn1CCCC(=O)NCc1ccc(Cc2nc3ccccc3s2)cc1
Activity [12]: 19.4

Compound: CCc1c(OCc2ccccc2)c(=O)ccn1CCCCCCNc1ccnc2cc(Cl)ccc12
IC50 (Plasmodium falciparum [16]): 122 nM | IC50 (Plasmodium falciparum [17]): 41 nM | IC50 (Plasmodium falciparum [18]): 89 nM | IC50 (Plasmodium falciparum [19]): 76 nM

Compound: O=c1cc(CNCCCCCCNc2ccnc3cc(Cl)ccc23)n(C2CC2)cc1OCc1ccccc1
IC50 (Plasmodium falciparum [16]): 47 nM | IC50 (Plasmodium falciparum [17]): 64 nM | IC50 (Plasmodium falciparum [18]): 505 nM | IC50 (Plasmodium falciparum [19]): 463 nM

Compound: O=C(NCCN(CCNC(=O)c1[nH]ccc(=O)c1O)CCNC(=O)c1[nH]ccc(=O)c1O)c1[nH]ccc(=O)c1O
log Ks [20]: 30.7 | Activity [5]: 30.5

Compound: CCCCCCn1ccc(=O)c(O)c1C(=O)NCCCC(CCCNC(=O)c1c(O)c(=O)ccn1CCCCCC)(CCCNC(=O)c1c(O)c(=O)ccn1CCCCCC)NC(=O)CCC
MIC (Pseudomonas aeruginosa): 32 µg/mL (≈ 34.2 µM)

The remaining lines, values ahead:

MIC (Pseudomonas aeruginosa): 32 µg/mL (≈ 35.7 µM)
Compound: CCCCn1ccc(=O)c(O)c1C(=O)NCCCC(CCCNC(=O)c1c(O)c(=O)ccn1CCCC)(CCCNC(=O)c1c(O)c(=O)ccn1CCCC)NC(=O)[C@@H](N)CC(C)C

logP at 1 h [3]: 0.53 | Activity [4]: 20.3
Compound: CC(=O)NCCCCCCn1ccc(=O)c(O)c1C

Activity [5]: 22
Compound: O=c1cc(CO)[nH]cc1O

MIC (Staphylococcus aureus [6]): 240 µg/mL (≈ 280 µM) | MIC (Providencia stuartii): 320 µg/mL (≈ 373 µM)
Compound: COCCOCCOCC(=O)NC(CCC(=O)NCc1c(O)c(=O)cc(C)n1C)(CCC(=O)NCc1c(O)c(=O)cc(C)n1C)CCC(=O)NCc1c(O)c(=O)cc(C)n1C

Activity [7]: 19.8
Compound: Cc1cc(=O)c(O)c(CO)n1CCCn1cc(COc2ccc3ccc(=O)oc3c2)nn1

MIC (Pseudomonas aeruginosa): 32 µg/mL (≈ 37.3 µM)
Compound: CCCC(=O)NC(CCCNC(=O)c1c(O)c(=O)ccn1CCOC)(CCCNC(=O)c1c(O)c(=O)ccn1CCOC)CCCNC(=O)c1c(O)c(=O)ccn1CCOC

MIC [14]: 16 µM (≈ 18.1 µg/mL)
Compound: CN(C)c1ccc2c(-c3cc(NC(=S)NCCC(=O)NC(CCCNC(=O)c4[nH]ccc(=O)c4O)(CCCNC(=O)c4[nH]ccc(=O)c4O)CCCNC(=O)c4[nH]ccc(=O)c4O)ccc3C(=O)[O-])c3ccc(=[N+](C)C)cc-3oc2c1

MIC (Pseudomonas aeruginosa): 128 µg/mL (≈ 142 µM)
Compound: COCCn1ccc(=O)c(O)c1C(=O)NCCCC(CCCNC(=O)c1c(O)c(=O)ccn1CCOC)(CCCNC(=O)c1c(O)c(=O)ccn1CCOC)NC(=O)[C@@H](N)CC(C)C

MIC (Pseudomonas aeruginosa): 32 µg/mL (≈ 37.6 µM)
Compound: CCCCn1ccc(=O)c(O)c1C(=O)NCCCC(CCCNC(=O)c1c(O)c(=O)ccn1CCCC)(CCCNC(=O)c1c(O)c(=O)ccn1CCCC)NC(=O)CCC
